Values of other authors, collected in patent publication US7655257B2, “Sustained delivery of an active agent using an implantable system” (Intarcia Therapeutics, Inc., priority 1996, dated 2010).

Experiments:
[1] = system: prostatic tumors in Noble and Dunning male rats and DMBA-induced mammary tumors in female rats
[2] = continuous administration, humans

CCNC(=O)[C@@H]1CCCN1C(=O)[C@H](CCCNC(=N)N)NC(=O)[C@H](CC(C)C)NC(=O)[C@@H](CC(C)C)NC(=O)[C@H](Cc1ccc(O)cc1)NC(=O)[C@H](CO)NC(=O)[C@H](Cc1c[nH]c2ccccc12)NC(=O)[C@H](Cc1c[nH]cn1)NC(=O)[C@@H]1CCC(=O)N1 [Leuprolide acetate]
level of LH and FSH (gonadotropin secretion; [2]): decreased level of LH and FSH | testosterone in males (gonadotropin secretion; [2]): reduced to castrate levels | activity when given orally (gonadotropin secretion; oral): not active | growth of hormone-dependent tumors [1]: inhibition of the growth
